Results: ChEMBL document CHEMBL1782052, “Artemisinin-dipeptidyl vinyl sulfone hybrid molecules: design, synthesis and preliminary SAR for antiplasmodial activity and falcipain-2 inhibition” (Bioorg Med Chem Lett, 2009)

Key:
[1] = Inhibition of Plasmodium chabaudi recombinant chabaupain expressed in Escherichia coli
Plasmodium falciparum [2] = experiment: Antiplasmodial activity against chloroquine-resistant Plasmodium falciparum W2 synchronized ring stage parasites infected in erythrocytes assessed as reduction in parasitemia after 48 hrs by Giemsa staining; type: functional, organism-based; conditions: W2, 48 h
[3] = Inhibition of Plasmodium falciparum recombinant falcipain-2 incubated for 30 mins at room temperature before addition of substrate benzoxycarbonyl-Leu-Arg-7-amino-4-methyl-coumarin by spectrofluorometry
Plasmodium falciparum [4] = experiment: Antiplasmodial activity against atovaquone-resistant Plasmodium falciparum FCR3; type: functional, organism-based
Plasmodium falciparum [5] = experiment: Antiplasmodial activity against chloroquine-sensitive Plasmodium falciparum 3D7; type: functional, organism-based
Plasmodium falciparum [6] = experiment: Antiplasmodial activity against chloroquine-sensitive and mefloquine-resistant Plasmodium falciparum D6; type: functional, organism-based
Plasmodium falciparum [7] = experiment: Antiplasmodial activity against chloroquine and pyrimethamine-resistant Plasmodium falciparum V1/S; type: functional, organism-based
[8] = Inhibition of falcipain-2 in Plasmodium falciparum trophozoite extracts incubated for 30 mins at room temperature before addition of substrate benzyloxycarbonyl-Phe-Arg-7-amino-4-methyl-coumarin by spectrofluorometry
Plasmodium falciparum [9] = experiment: Antiplasmodial activity against Plasmodium falciparum Itg2 synchronized ring stage parasites infected in erythrocytes assessed as reduction in parasitemia after 48 hrs by Giemsa staining; type: functional, organism-based; conditions: Itg2, 48 h

IC50 [8]	IC50 (Plasmodium falciparum [9])	SMILES	IC50 [1]	IC50 (Plasmodium falciparum [2])	IC50 [3]	IC50 (Plasmodium falciparum [4])	IC50 (Plasmodium falciparum [5])	IC50 (Plasmodium falciparum [6])	IC50 (Plasmodium falciparum [7])
		CC(C)C[C@H](NC(=O)c1ccc(CO[C@H]2O[C@@H]3O[C@@]4(C)CC[C@H]5[C@H](C)CC[C@@H]([C@H]2C)[C@@]35OO4)cc1)C(=O)N[C@H](/C=C/S(=O)(=O)c1ccccc1)CCc1ccccc1	2290 nM	2.08 nM	4950 nM				
		C[C@H]1[C@@H](OCc2ccc(C(=O)NCC(=O)N[C@H](/C=C/S(=O)(=O)c3ccccc3)Cc3ccccc3)cc2)O[C@@H]2O[C@@]3(C)CC[C@H]4[C@H](C)CC[C@@H]1[C@@]24OO3	56800 nM	4.09 nM	16500 nM	1.75 nM	3.11 nM	4.71 nM	1.59 nM
		C[C@H]1[C@@H](OCc2ccc(C(=O)N[C@@H](Cc3ccccc3)C(=O)N[C@H](/C=C/S(=O)(=O)c3ccccc3)Cc3ccccc3)cc2)O[C@@H]2O[C@@]3(C)CC[C@H]4[C@H](C)CC[C@@H]1[C@@]24OO3	400 nM	2.27 nM	22400 nM				
		C[C@H]1[C@@H](OCc2ccc(C(=O)N[C@@H](Cc3ccccc3)C(=O)N[C@H](/C=C/S(=O)(=O)c3ccccc3)CCc3ccccc3)cc2)O[C@@H]2O[C@@]3(C)CC[C@H]4[C@H](C)CC[C@@H]1[C@@]24OO3	538 nM	3.94 nM	9220 nM				
		C[C@H]1[C@@H](OCc2ccc(C(=O)N[C@@H](Cc3ccccc3)C(=O)N[C@H](/C=C/S(C)(=O)=O)CCc3ccccc3)cc2)O[C@@H]2O[C@@]3(C)CC[C@H]4[C@H](C)CC[C@@H]1[C@@]24OO3		4.81 nM	21600 nM	2 nM	2.5 nM		2.25 nM
		CC(C)C[C@H](NC(=O)c1ccc(CO[C@H]2O[C@@H]3O[C@@]4(C)CC[C@H]5[C@H](C)CC[C@@H]([C@H]2C)[C@@]35OO4)cc1)C(=O)N[C@H](/C=C/S(C)(=O)=O)CCc1ccccc1		4.21 nM	350 nM	1.89 nM	2.48 nM	4.96 nM	1.65 nM
		CC(C)C[C@H](NC(=O)OC(C)(C)C)C(=O)N[C@H](/C=C/S(=O)(=O)c1ccccc1)CCc1ccccc1		> 10000 nM	210 nM				
3 nM	22 nM	CC(C)C[C@H](NC(=O)N1CCOCC1)C(=O)N[C@H](/C=C/S(=O)(=O)c1ccccc1)CCc1ccccc1							
		C[C@@H]1[C@H](OCc2ccc(C(=O)O)cc2)O[C@@H]2O[C@@]3(C)CC[C@@H]4[C@@H](C)CC[C@@H]1[C@]24OO3 (stereo in doubt) [ARTELINIC ACID]		5.66 nM					
		C[C@@H]1CC[C@H]2[C@@H](C)C(=O)O[C@@H]3O[C@@]4(C)CC[C@@H]1[C@]32OO4 [ARTEMISININ]		12 nM		5.38 nM	9.71 nM		4.24 nM
		CC(C)C[C@H](NC(=O)[C@H]1O[C@@H]1C(=O)O)C(=O)NCCCCN=C(N)N [E-64]	9 nM		84 nM				
